Data published in US9546152B2 (MERCK SHARP & DOHME CORP., priority 2012, dated 2017).
Like-named read-outs stand apart in the source and are kept apart here.

What was measured:
human orexin-2 receptor [1] = biological target: T1, human orexin-2 receptor (Homo sapiens (Human), UniProt O43614); experiment: radioligand binding assay, orexin-2 receptor; details: read-out: hOX2R BIND hKi
[2] = biological target: orexin-1 receptor (hOX1R) (Rattus norvegicus, UniProt P56718); experiment: radioligand binding assay, orexin-1 receptor; details: membranes prepared from CHO cells expressing the OX1 receptor; read-out: hOX1R BIND hKi
Sequence of orexin-1 receptor (hOX1R) (P56718 whole entry, looked up): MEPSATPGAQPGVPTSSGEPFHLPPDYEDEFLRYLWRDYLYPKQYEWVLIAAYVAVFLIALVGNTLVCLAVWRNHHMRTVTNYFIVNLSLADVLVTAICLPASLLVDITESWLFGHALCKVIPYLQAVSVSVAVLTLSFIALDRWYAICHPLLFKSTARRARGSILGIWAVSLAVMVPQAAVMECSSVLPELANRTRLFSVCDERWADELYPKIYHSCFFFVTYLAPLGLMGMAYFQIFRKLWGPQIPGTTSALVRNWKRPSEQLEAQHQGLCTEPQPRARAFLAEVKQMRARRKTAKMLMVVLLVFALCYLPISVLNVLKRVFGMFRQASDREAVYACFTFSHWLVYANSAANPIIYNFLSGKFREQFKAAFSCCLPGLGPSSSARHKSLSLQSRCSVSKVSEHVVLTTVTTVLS
Procedure: In a typical experiment the OX1 and OX2 receptor antagonistic activity of the compounds of the present invention was determined in accordance with the following experimental method. For intracellular calcium measurements, Chinese hamster ovary (CHO) cells expressing the rat orexin-1 receptor or the human orexin-2 receptor, are grown in Iscove's modified DMEM containing 2 mM L-glutamine, […], 1% hypoxanthine-thymidine supplement, 100 U/ml penicillin, 100 μg/ml streptomycin and 10% heat-inactivated fetal calf serum (FCS). The cells are seeded at 20,000 cells/well into Becton-Dickinson black 384-well clear bottom sterile plates coated with poly-D-lysine. […] Within the Fluorescent Imaging Plate Reader (FLIPR, Molecular Devices), test compounds are added to the plate in a volume of 25 μl, incubated for 5 min and finally 25 μl of agonist is added. Fluorescence is measured for each well at 1 second intervals for 5 minutes and the height of each fluorescence peak is compared to the height of the fluorescence peak induced by 70 pM Ala-6,12 orexin-A with buffer in place of antagonist. […] Alternatively, compound potency can be assessed by a radioligand binding assay (described in Bergman et. al. Bioorg. Med. Chem. Lett. 2008, 18, 1425-1430) in which the inhibition constant (Ki) is determined in membranes prepared from CHO cells expressing either the OX1 or OX2 receptor. […]

human orexin-2 receptor [3] = biological target: T1, human orexin-2 receptor; experiment: FLIPR Ca2+ Flux Assay, orexin-2 receptor; type: cell-based; details: read-out: hOX2R FLIPR IC50
Summary of the method: (§1)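 Using CHO lines carrying either rat orexin-1 or human orexin-2 receptor, compounds were tested as antagonists of 70 pM Ala-6,12 orexin-A-evoked calcium rises. Fluo-4 signal was read on a FLIPR over 5 min after a 5 min compound preincubation.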

rat orexin-1 receptor = rat orexin-1 receptor (Rattus norvegicus (Rat), UniProt P56718); experiment: FLIPR Ca2+ Flux Assay, orexin-1 receptor; type: cell-based; details: read-out: hOX1R FLIPR IC50
Sequence of rat orexin-1 receptor (P56718 whole entry): as the sequence (P56718 whole entry, looked up) above
Summary of the method: as §1

[4] = membranes prepared from CHO cells expressing the OX2 receptor
[5] = CHO cells expressing the human orexin-2 receptor, agonist 70 pM Ala-6,12 human orexin-A
[6] = CHO cells expressing the rat orexin-1 receptor, agonist 70 pM Ala-6,12 human orexin-A

T1 sequence (O43614 whole entry): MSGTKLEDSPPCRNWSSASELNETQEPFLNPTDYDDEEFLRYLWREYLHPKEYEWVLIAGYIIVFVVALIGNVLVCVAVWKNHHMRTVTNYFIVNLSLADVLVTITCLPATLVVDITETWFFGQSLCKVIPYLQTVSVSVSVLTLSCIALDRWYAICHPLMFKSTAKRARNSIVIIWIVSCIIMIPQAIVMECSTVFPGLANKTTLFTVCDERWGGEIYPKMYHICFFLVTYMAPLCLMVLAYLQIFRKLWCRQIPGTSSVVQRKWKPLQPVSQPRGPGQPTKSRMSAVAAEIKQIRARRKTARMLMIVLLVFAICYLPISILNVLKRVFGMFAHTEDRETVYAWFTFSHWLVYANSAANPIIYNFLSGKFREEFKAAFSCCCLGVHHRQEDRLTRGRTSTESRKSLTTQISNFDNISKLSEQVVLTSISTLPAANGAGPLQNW

Row | Compound | Ki (human orexin-2 receptor [1]) [nM] | Ki [2] [nM] | IC50 (human orexin-2 receptor [3]) [nM] | IC50 (rat orexin-1 receptor) [nM] | Ki (human orexin-2 receptor [1]; [4]) [nM] | IC50 (human orexin-2 receptor [3]; [5]) [nM] | IC50 (rat orexin-1 receptor; [6]) [nM]
1 | COc1c(C#N)ccnc1O[C@@H]1CC[C@@H](C)N(C(=O)c2cccc(F)c2-c2ncccn2)C1 [Example 109] | 1.1 | 482 | 26 | 2850 |  |  | 
2 | COc1c(C#N)ccnc1O[C@@H]1CC[C@@H](C)N(C(=O)c2cccc(C)c2-n2nccn2)C1 [Example 101, 3-methoxy-2-{[(3R,6R)-6-methyl-1-{[3-methyl-2-(2H-1,2,3-triazol-2-yl)phenyl]carbonyl}piperidin-3-yl]oxy}pyridine-4-carbonitrile] |  |  |  |  | 0.3 | 21 | 957
3 | Cc1c(C#N)ccnc1O[C@@H]1CC[C@@H](C)N(C(=O)c2ccccc2-n2ncnn2)C1 [Example 70, 3-methyl-2-{[(3R,6R)-6-methyl-1-{[2-(2H-tetrazol-2-yl)phenyl]carbonyl}piperidin-3-yl]oxy}pyridine-4-carbonitrile] |  |  |  |  | 1.6 | 7.7 | 4590
4 | Cc1nc(C(=O)N2C[C@H](Oc3nccc(C#N)c3C)CC[C@H]2C)c(-c2ccc(F)cc2)s1 [Example 41, 2-{[(3R,6R)-1-{[5-(4-fluorophenyl)-2-methyl-1,3-thiazol-4-yl]carbonyl}-6-methylpiperidin-3-yl]oxy}-3-methylpyridine-4-carbonitrile] |  |  |  |  | 4.6 | 48 | 1200
5 | Cc1ccc(C(=O)N2C[C@H](Oc3nccc(C#N)c3C)CC[C@H]2C)c(C2CC2)c1 [Example 51, 2-({(3R,6R)-1-[(2-cyclopropyl-4-methylphenyl)carbonyl]-6-methylpiperidin-3-yl}oxy)-3-methylpyridine-4-carbonitrile] |  |  |  |  | 0.6 | 21 | 2100
6 | C[C@@H]1CC[C@@H](Oc2nccc(C#N)c2Cl)CN1C(=O)c1ccccc1-n1nccn1 [Example 91, 3-Chloro-2-{[(3R,6R)-6-methyl-1-{[2-(2H-1,2,3-triazol-2-yl)phenyl]carbonyl}piperidin-3-yl]oxy}pyridine-4-carbonitrile] |  |  |  |  | 0.8 | 8 | 1600
7 | Cc1c(C#N)ccnc1O[C@@H]1CC[C@@H](C)N(C(=O)c2c(F)cccc2-c2cscn2)C1 [Example 22, 2-{[(3R,6R)-1-{[2-fluoro-6-(1,3-thiazol-4-yl)phenyl]carbonyl}-6-methylpiperidin-3-yl]oxy}-3-methylpyridine-4-carbonitrile] |  |  |  |  | 0.3 | 20 | 991
8 | Cc1ccc(C(=O)N2C[C@H](Oc3nccc(C#N)c3C)CC[C@H]2C)c(-c2ncccn2)c1 [Example 76, 3-methyl-2-({(3R,6R)-6-methyl-1-[(4-methyl-2-pyrimidin-2-ylphenyl)carbonyl]piperidin-3-yl}oxy)pyridine-4-carbonitrile] |  |  |  |  | 2.1 | 37 | 1270
9 | Cc1c(C#N)ccnc1O[C@@H]1CC[C@@H](C)N(C(=O)c2cc(F)ccc2-c2cscn2)C1 [Example 26, 2-{[(3R,6R)-1-{[5-fluoro-2-(1,3-thiazol-4-yl)phenyl]carbonyl}-6-methylpiperidin-3-yl]oxy}-3-methylpyridine-4-carbonitrile] |  |  |  |  | 0.6 | 10 | 967
10 | COc1cccc(-n2nccn2)c1C(=O)N1C[C@H](Oc2nccc(C#N)c2C)CC[C@H]1C [Example 14, 2-{[(3R,6R)-1-{[2-methoxy-6-(2H-1,2,3-triazol-2-yl)phenyl]carbonyl}-6-methylpiperidin-3-yl]oxy}-3-methylpyridine-4-carbonitrile] |  |  |  |  | 0.2 | 15 | 507
11 | Cc1c(C#N)ccnc1O[C@@H]1CC[C@@H](C)N(C(=O)c2sccc2-c2nccs2)C1 [Example 37, 3-methyl-2-{[(3R,6R)-6-methyl-1-{[3-(1,3-thiazol-2-yl)thiophen-2-yl]carbonyl}piperidin-3-yl]oxy}pyridine-4-carbonitrile] |  |  |  |  | 1.2 | 11 | 2270
12 | Cc1c(C#N)ccnc1O[C@@H]1CC[C@@H](C)N(C(=O)c2ccc(Cl)nc2-n2nccn2)C1 [Example 72, 2-{[(3R,6R)-1-{[6-chloro-2-(2H-1,2,3-triazol-2-yl)pyridin-3-yl]carbonyl}-6-methylpiperidin-3-yl]oxy}-3-methylpyridine-4-carbonitrile] |  |  |  |  | 3.5 | 75 | > 10000
13 | Cc1c(C#N)ccnc1O[C@@H]1CC[C@@H](C)N(C(=O)c2ccc(OCF)cc2-n2nccn2)C1 [Example 64, 2-{[(3R,6R)-1-{[4-(fluoromethoxy)-2-(2H-1,2,3-triazol-2-yl)phenyl]carbonyl}-6-methylpiperidin-3-yl]oxy}-3-methylpyridine-4-carbonitrile] |  |  |  |  | 3.3 | 35 | 4490
